In patent publication US7371758B2, “Antimalarial pyrimidine derivatives and methods of making and using them” (National Science & Technology Development Agency, priority 2003, dated 2008):

What was measured:
[1] = molecular target: dihydrofolate reductase of Plasmodium falciparum, wild type (Plasmodium falciparum, UniProt A7UD81); experiment: PfDHFR enzyme inhibition constants (Ki), wild type; format: biochemical; settings: 25° C., 340 nm
PfDHFR S108N = molecular target: T1, PfDHFR S108N (Plasmodium falciparum, UniProt A7UD81, S108N); experiment: PfDHFR enzyme inhibition constants (Ki), single mutant S108N; format: biochemical
T1 construct: made in house; host or cells: E. coli BL21 (DE3)pLysS

PfDHFR C59R + S108N = molecular target: T2, PfDHFR C59R + S108N (Plasmodium falciparum, UniProt A7UD81, C59R/S108N); experiment: PfDHFR enzyme inhibition constants (Ki), double mutant C59R + S108N; format: biochemical
T2 construct: made in house; host or cells: E. coli BL21 (DE3)pLysS

[2] = molecular target: T3, PfDHFR N51I + C59R + S108N + I164L (Plasmodium falciparum, UniProt A7UD81, C59R/I164L/N51I/S108N); experiment: PfDHFR enzyme inhibition constants (Ki), quadruple mutant N51I + C59R + S108N + I164L; format: biochemical
T3 construct: made in house; host or cells: E. coli BL21 (DE3)pLysS

[3] = tested on: Plasmodium falciparum TM4/8.2 (wild type); experiment: In vitro antimalarial activity, [3H]-hypoxanthine incorporation, TM4/8.2; format: cell-based; settings: P. falciparum TM4/8.2, wild type
Experimental: P. falciparum strains were used in this study. P. falciparum strains were maintained continuously in human erythrocytes at 37° C. under 3% CO2 in RPMI 1640 culture media supplemented with 25 mM HEPES, pH 7.4, 0.2% NaHCO3, 40 μg/mL gentamicin and 10% human serum.
In vitro antimalarial activity was determined by using [^3H]-hypoxanthine incorporation method. The drugs were initially dissolved in DMSO and diluted with the culture media. Aliquots (25 μL) of the drug of different concentrations were dispensed in 96-well plates and 200 μL of 1.5% cell suspension of parasitized erythrocytes containing 1-2% parasitemia were added. […] The mixtures were incubated in a 3% CO2 incubator at 37° C. After 24 h of incubation, 25 μL (0.25 μCi) of [^3H]-hypoxanthine were added to each well. The parasite cultures were further incubated under the same condition for 18-24 h. DNA of parasites was harvested onto glass filter paper. The filters were air-dried and 20 μL liquid scintillation fluid was added. The radioactivity on the filters was then measured using a microplate scintillation counter. […] Examples of the invented compounds in this series with active antimalarial activity against wild type and in particular against parasites carrying single, double, triple, and quadruple mutant enzymes are as summarized in Table 2.

[4] = Cytotoxicity to mammalian cells, Vero; format: cell-based; settings: African green monkey, Vero cells (African green monkey kidney epithelial cells)
[5] = Cytotoxicity to mammalian cells, KB; format: cell-based; settings: human, KB cells (human epidermoid carcinoma)
Experimental: (§1) Cytotoxicity tests of the invented compounds against African green monkey kidney fibroblast (Vero cells), Human epidermoid carcinoma (KB) cells, Human breast cancer (BC) cells were performed according to the protocol described by Skehan et al (1990). These compounds have selectivity against malaria parasites with no or less effect on mammalian cell lines.

[6] = Cytotoxicity to mammalian cells, BC; format: cell-based; settings: human, BC cells (human breast cancer)
Experimental: as §1

Staphylococcus aureus = experiment: Antibacterial activity, bacterial growth inhibition, S. aureus; format: cell-based; settings: 20 hours incubation, 600 nm
Experimental: (§2) The IC50-values was determined from the sigmoidal curve obtained by plotting the percentages of bacterial growth against drug concentrations. These compounds have selectivity against malaria parasites with no or less effect on bacteria. The antibacterial activities to S. aureus, and E. coli are as summerized in Table 4.

E. coli = experiment: Antibacterial activity, bacterial growth inhibition, E. coli; format: cell-based; settings: Escherichia coli, 20 hours incubation, 600 nm
Experimental: as §2

[7] = molecular target: PfDHFR N51I + C59R + S108N (Plasmodium falciparum, UniProt A7UD81, C59R/N51I/S108N); experiment: biochemical
[8] = molecular target: PfDHFR C59R + S108N + I164L (Plasmodium falciparum, UniProt A7UD81, C59R/I164L/S108N); experiment: biochemical
PfDHFR C59R + S108N + I164L, sequence (A7UD81 whole entry C59R/S108N/I164L): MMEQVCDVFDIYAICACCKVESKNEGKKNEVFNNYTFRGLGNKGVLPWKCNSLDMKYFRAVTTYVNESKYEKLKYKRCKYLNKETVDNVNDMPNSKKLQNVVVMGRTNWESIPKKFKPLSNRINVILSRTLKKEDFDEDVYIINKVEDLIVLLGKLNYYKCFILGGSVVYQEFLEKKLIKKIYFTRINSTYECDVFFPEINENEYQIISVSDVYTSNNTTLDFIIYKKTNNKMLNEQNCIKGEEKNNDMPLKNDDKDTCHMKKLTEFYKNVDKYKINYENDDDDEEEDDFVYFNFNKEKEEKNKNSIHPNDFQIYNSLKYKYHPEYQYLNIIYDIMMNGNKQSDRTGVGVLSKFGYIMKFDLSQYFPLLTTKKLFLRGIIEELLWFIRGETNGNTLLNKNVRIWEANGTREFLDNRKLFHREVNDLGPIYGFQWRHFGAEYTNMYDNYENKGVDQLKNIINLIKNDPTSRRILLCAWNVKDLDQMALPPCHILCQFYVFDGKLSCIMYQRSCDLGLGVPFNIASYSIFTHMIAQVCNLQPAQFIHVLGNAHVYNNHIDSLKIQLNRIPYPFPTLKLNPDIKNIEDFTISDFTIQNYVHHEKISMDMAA

T3 sequence (A7UD81 whole entry N51I/C59R/S108N/I164L): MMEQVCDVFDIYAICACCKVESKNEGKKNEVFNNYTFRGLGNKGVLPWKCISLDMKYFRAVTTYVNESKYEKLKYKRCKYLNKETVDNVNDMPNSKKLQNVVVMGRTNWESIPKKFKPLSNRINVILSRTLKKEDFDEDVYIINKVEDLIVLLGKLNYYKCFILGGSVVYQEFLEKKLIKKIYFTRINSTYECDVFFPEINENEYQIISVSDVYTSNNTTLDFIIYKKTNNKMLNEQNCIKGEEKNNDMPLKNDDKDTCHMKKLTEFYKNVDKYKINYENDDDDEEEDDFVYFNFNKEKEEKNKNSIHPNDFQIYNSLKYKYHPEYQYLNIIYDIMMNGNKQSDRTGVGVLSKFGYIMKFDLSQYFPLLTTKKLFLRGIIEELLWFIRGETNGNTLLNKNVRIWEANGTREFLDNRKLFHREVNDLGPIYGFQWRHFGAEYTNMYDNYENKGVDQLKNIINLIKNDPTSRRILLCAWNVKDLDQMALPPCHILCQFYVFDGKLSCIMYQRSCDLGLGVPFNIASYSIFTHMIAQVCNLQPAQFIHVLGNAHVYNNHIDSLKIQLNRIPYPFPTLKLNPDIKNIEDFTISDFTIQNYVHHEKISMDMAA
dihydrofolate reductase of Plasmodium falciparum, wild type, sequence (A7UD81 entry or part of it): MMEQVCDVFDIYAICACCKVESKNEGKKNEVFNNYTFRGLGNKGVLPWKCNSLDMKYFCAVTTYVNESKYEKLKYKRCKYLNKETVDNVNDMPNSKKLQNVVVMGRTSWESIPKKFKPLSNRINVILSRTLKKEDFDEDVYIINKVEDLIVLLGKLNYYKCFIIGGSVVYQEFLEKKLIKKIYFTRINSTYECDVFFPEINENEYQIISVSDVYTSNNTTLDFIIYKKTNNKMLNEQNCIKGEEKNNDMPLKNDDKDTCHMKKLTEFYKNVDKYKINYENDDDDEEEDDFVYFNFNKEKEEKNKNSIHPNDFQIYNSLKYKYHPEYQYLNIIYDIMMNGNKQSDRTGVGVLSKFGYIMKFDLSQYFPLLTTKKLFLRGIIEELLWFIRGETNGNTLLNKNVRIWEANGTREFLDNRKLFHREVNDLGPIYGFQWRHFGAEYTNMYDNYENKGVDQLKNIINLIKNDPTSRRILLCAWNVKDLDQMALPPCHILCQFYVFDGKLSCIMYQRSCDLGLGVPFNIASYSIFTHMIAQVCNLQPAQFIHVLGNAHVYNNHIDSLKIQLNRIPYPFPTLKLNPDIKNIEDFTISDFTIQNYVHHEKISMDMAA
T1 sequence (A7UD81 whole entry S108N): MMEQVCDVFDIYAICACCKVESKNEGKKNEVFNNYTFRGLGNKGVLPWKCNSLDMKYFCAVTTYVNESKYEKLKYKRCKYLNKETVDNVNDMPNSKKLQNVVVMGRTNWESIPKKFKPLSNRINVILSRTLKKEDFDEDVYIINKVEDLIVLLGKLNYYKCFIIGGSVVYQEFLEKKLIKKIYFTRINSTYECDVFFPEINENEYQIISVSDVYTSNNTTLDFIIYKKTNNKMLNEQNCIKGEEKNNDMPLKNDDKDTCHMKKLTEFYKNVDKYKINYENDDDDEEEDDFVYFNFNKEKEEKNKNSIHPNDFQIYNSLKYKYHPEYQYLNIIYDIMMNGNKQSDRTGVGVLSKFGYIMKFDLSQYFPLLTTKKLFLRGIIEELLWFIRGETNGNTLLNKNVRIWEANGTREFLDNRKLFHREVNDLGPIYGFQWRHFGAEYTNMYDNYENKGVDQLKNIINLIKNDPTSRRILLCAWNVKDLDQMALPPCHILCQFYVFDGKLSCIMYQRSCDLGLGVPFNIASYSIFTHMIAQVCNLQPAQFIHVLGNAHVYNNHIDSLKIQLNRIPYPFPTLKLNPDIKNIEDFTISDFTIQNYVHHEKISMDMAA
PfDHFR N51I + C59R + S108N, sequence (A7UD81 whole entry N51I/C59R/S108N): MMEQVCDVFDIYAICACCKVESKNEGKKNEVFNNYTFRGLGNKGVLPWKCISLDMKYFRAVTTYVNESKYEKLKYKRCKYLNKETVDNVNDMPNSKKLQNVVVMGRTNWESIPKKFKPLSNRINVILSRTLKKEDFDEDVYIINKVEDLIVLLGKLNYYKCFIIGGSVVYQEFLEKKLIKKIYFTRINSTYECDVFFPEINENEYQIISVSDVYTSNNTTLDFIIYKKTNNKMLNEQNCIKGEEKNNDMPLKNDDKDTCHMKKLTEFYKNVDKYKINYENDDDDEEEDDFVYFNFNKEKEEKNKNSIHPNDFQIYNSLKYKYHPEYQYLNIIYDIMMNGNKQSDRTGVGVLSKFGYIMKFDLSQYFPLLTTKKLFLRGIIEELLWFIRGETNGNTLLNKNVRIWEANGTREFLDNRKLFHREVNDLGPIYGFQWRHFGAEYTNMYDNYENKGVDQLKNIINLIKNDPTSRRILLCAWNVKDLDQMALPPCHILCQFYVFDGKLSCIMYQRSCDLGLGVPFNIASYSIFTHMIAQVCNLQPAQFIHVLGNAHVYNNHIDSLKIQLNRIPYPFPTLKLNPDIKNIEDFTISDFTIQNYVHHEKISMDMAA
T2 sequence (A7UD81 whole entry C59R/S108N): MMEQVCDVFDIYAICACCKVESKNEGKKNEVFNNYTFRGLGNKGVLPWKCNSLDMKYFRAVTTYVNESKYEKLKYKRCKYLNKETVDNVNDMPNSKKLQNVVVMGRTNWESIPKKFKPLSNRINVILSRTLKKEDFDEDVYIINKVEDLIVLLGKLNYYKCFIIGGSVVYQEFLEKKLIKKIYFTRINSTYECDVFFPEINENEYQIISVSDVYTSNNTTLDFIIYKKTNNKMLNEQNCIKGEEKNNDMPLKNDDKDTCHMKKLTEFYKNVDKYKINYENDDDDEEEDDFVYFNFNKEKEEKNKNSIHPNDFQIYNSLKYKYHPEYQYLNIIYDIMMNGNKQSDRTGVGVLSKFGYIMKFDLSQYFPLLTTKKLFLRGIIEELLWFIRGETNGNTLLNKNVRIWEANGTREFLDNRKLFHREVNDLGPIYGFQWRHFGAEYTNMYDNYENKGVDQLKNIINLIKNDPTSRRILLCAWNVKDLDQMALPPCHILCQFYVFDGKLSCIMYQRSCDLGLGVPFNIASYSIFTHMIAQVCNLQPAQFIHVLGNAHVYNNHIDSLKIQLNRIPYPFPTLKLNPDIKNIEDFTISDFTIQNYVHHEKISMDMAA

SMILES | Ki [1] [nM] | Ki (PfDHFR S108N) [nM] | Ki (PfDHFR C59R + S108N) [nM] | Ki [2] [nM] | IC50 [3] [nM] | IC50 [4] [µM] | IC50 [5] [µM] | IC50 [6] [µM] | IC50 (Staphylococcus aureus) [µM] | IC50 (E. coli) [µM] | Ki [7] [nM] | Ki [8] [nM]
COc1ccc(CCCc2nc(N)nc(N)c2-c2cccc(Cl)c2)cc1 [Example 5, 2,4-diamino-5-(3-chlorophenyl)-6-[3-(4-methoxyphenyl)propyl]pyrimidine] | 2.2 ± 0.6 | 4 ± 0.2 | 6 ± 0.6 | 2 ± 0.4 | 410 ± 50 | 3 | 15 | 3 | 38 | > 50 | 1.3 ± 0.1 | 2.9 ± 0.3
Nc1nc(N)c(-c2cccc(Cl)c2)c(CCOCCCOc2ccccc2)n1 [Example 7, 2,4-diamino-5-(3-chlorophenyl)-6-[2-(3-phenoxypropyloxy)ethyl]pyrimidine] | 0.4 ± 0.2 | 1.8 ± 0.3 | 1.9 ± 0.4 | 1.7 ± 0.2 | 350 ± 80 | 15 | 6.4 | 4.9 | > 50 | > 50 | 0.7 ± 0.1 | 1.3 ± 0.4
COC(=O)CCCc1nc(N)nc(N)c1-c1ccccc1 [Example 3, 2,4-diamino-6-(3-methoxycarbonylpropyl)-5-phenylpyrimidine] | 0.6 | 1.8 ± 0.2 | 5.5 ± 0.5 | 24 ± 2 | 390 ± 60 | 20 | 71 | 500 | > 50 | > 50 | 3.3 ± 0.6 | 15 ± 3
CCc1nc(N)nc(N)c1-c1ccc(Cl)cc1 [Pyr, pyrimethamine, reference compound] | – | – | – | – | 80 ± 10 | – | 109 | 40 | – | – | – | –
CCCCCCc1nc(N)nc(N)c1-c1ccccc1 [Example 1, 2,4-diamino-6-(n-hexyl)-5-phenylpyrimidine] | 0.3 ± 0.1 | 1.2 ± 0.3 | 0.7 ± 0.3 | 1.4 ± 0.5 | 60 ± 20 | 55 | 113 | 268 | > 10 | > 10 | 0.4 ± 0.02 | 0.7 ± 0.2
COc1cc(Cc2cnc(N)nc2N)cc(OC)c1OC [Trimethoprim, reference compound] | – | – | – | – | – | – | – | – | 6 | 2.3 | – | –
Nc1nc(N)c(-c2ccccc2)c(CCCc2ccccc2)n1 [Example 2, 2,4-diamino-5-phenyl-6-(3-phenylpropyl)pyrimidine] | 0.5 | 0.9 ± 0.2 | 2.4 ± 0.1 | 4.7 ± 0.9 | 210 ± 60 | > 50 | 150 | 250 | > 50 | > 50 | 1.1 ± 0.1 | 1.9 ± 0.1
Nc1nc(N)c(-c2cccc(Cl)c2)c(CCCc2ccccc2)n1 [Example 4, 2,4-diamino-5-(3-chlorophenyl)-6-(3-phenylpropyl)pyrimidine] | 1.2 ± 0.2 | 3 ± 0.6 | 4.2 ± 0.2 | 2 ± 0.8 | 670 ± 60 | 2.1 | 1.6 | 1.6 | > 50 | > 50 | 2 ± 0.2 | 2.2 ± 0.3
COC(=O)CCCc1nc(N)nc(N)c1-c1cccc(Cl)c1 [Example 6, 2,4-diamino-5-(3-chlorophenyl)-6-(3-methoxycarbonylpropyl)pyrimidine] | 0.5 | 1.7 ± 0.1 | 2.8 ± 0.2 | 2.7 ± 1.2 | 790 ± 100 | 20 | 9.3 | 22.8 | > 50 | > 50 | 0.8 ± 0.2 | 1.8 ± 0.4
